Measurements: PMC7933930, “Development of a small molecule that corrects misfolding and increases secretion of Z α1‐antitrypsin” (EMBO Molecular Medicine, 2021)

Assays:
M α1‐antitrypsin [1] = biological target: T1, M α1‐antitrypsin (Homo sapiens, UniProt P01009); assay: Stoichiometry of inhibition against chymotrypsin, M α1‐antitrypsin; assay type: biochemical; conditions: M α1‐antitrypsin pre‐incubated with GSK716 (50µM), read-out: loss of protease inhibitory activity
T1 construct: purified from the plasma of M (wild‐type) and Z α1‐antitrypsin homozygotes; from tissue; host or cells: human plasma of M (wild-type) homozygotes
T1 sequence (P01009 25-418): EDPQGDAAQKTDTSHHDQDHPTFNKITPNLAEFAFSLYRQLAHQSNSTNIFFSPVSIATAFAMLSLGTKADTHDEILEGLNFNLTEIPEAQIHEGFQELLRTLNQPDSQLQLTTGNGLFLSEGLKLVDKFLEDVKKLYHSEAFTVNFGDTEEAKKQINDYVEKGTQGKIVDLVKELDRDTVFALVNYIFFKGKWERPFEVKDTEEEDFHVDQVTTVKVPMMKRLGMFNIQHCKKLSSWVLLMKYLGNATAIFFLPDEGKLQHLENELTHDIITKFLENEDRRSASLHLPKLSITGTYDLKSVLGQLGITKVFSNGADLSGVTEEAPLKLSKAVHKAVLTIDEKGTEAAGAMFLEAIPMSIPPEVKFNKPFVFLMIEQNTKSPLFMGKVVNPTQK
Experimental: Mutations that interfere with the opening of β‐sheet A or that perturb its interaction with the N‐terminal portion of the reactive centre loop alter the ability of serpins to inhibit target proteases (Hood et al, 1994; Irving et al, 2014). The stoichiometry of inhibition (SI) was determined for M α1‐antitrypsin and Z α1‐antitrypsin in discontinuous experiments against a model target protease, chymotrypsin. The pre‐incubation of both variants with GSK716 led to a > 98% loss of protease inhibitory activity (Fig 5A).
Figure 5 The effect of GSK716 on serpin inhibitory activity • α1‐Antitrypsin was incubated at varying molar ratios with the model protease bovine α‐chymotrypsin, and the residual protease activity determined. […] The position of covalent α1‐antitrypsin‐chymotrypsin complex (cpx), native (nat) and cleaved (clv) is shown. • The inhibitory activity of α1‐antichymotrypsin against chymotrypsin (ach + chym), neuroserpin against trypsin (neus + tryp), and antithrombin against thrombin (atiii + thrombin) was determined in the presence and absence of GSK716. […]
The native state stability of α1‐antitrypsin on addition of compounds was investigated by thermal denaturation in the presence of a 5X concentration of SYPRO Orange dye solution (Life Technologies) (Nettleship et al, 2008). Resistance to heat‐induced polymerisation was determined using an end‐point constant‐temperature assay. […]

M α1‐antitrypsin [2] = biological target: T1, M α1‐antitrypsin; assay: Association kinetics by intrinsic tryptophan fluorescence (stopped flow), M α1‐antitrypsin; assay type: binding
Text: (§1) The shape of the curves and native mass spectrometry (not shown) are consistent with a single high‐affinity compound binding site. No binding of the fluorescent derivative to polymers of Z α1‐antitrypsin was observed, indicating conformational selectivity for the monomeric protein (Fig 1D). The rate of interaction of the compound with the target was monitored through changes in intrinsic tryptophan fluorescence (Dafforn et al, 1999); this property was used to determine the second‐order association rate constants for GSK716 binding to Z (4.1 × 10^4 M^−1 s^−1) and M α1‐antitrypsin (2.1 × 10^2 M^−1 s^−1; Fig 1E and F). […] Therefore, the selectivity of the compound for Z over M α1‐antitrypsin is dominated by the difference in the rate of association rather than dissociation.
Kinetic parameters of GSK716 binding to M, Z, S (Glu264Val) and Baghdad (Ala336Pro) (Haq et al, 2016) α1‐antitrypsin were measured by detecting intrinsic tryptophan fluorescence of the protein (excitation at 280 nm and detection of emission at 320 nm) on a stopped flow apparatus (Applied Photophysics) (Kim & Yu, 1996; Dafforn et al, 1999). […]

Z α1‐antitrypsin = Z α1‐antitrypsin (Homo sapiens, UniProt P01009, E366K); assay: Association kinetics by intrinsic tryptophan fluorescence (stopped flow), Z α1‐antitrypsin; assay type: binding; parameters: purified from the plasma of Z α1‐antitrypsin homozygotes; from tissue; host or cells: human plasma of Z α1-antitrypsin homozygotes
Sequence of Z α1‐antitrypsin (P01009 25-418 E366K): as the sequence (P01009 25-418) above, with E342K counted along it
Text: as §1
Kinetic parameters of GSK716 binding to M, Z, S (Glu264Val) and Baghdad (Ala336Pro) (Haq et al, 2016) α1‐antitrypsin were measured by detecting intrinsic tryptophan fluorescence of the protein (excitation at 280 nm and detection of emission at 320 nm) on a stopped flow apparatus (Applied Photophysics) (Kim & Yu, 1996; Dafforn et al, 1999). A competition assay for binding to M α1‐antitrypsin and Z α1‐antitrypsin and Z α1‐antitrypsin polymers (Lomas et al, 1993; Irving et al, 2011; Haq et al, 2013), based on an Alexa488‐labelled analogue of GSK716 (A488‐GSK716), was used to determine the binding affinity of test compounds.

With `CCC[C@@H](NC(=O)c1cccc2c1CC(=O)N2)[C@@H](O)c1cccc(F)c1C` [GSK716] the inhibition at 50 µM (M α1‐antitrypsin [1]) was greater than 98%, the koff (M α1‐antitrypsin [2]; calculated from association rate constant and affinity, read-out: first‐order dissociation rate constant) was 1.6e-05 s⁻¹ and the kon (M α1‐antitrypsin [2]; read-out: second‐order association rate constant) was 210 M⁻¹ s⁻¹. For the same compound, the “time of change in Z α1‐antitrypsin fluorescence on association (faster than dead‐time of the apparatus)” value (Z α1‐antitrypsin; 10 µM GSK716, 0.2 mg/ml protein) was less than 10 s, the koff (Z α1‐antitrypsin; Z α1‐antitrypsin, calculated from association rate constant and affinity, read-out: first‐order dissociation rate constant) was 6.1e-05 s⁻¹ and the kon (Z α1‐antitrypsin; Z α1‐antitrypsin, read-out: second‐order association rate constant) was 41000 M⁻¹ s⁻¹.
